# Earlier results, collected in patent publication US20220387447A1, “FORMULATIONS OF TESTOSTERONE AND METHODS OF TREATMENT THEREWITH” (BOARD OF REGENTS, THE UNIVERSITY OF TEXAS SYSTEM, priority 2016, published 2022).
# Key:
# [1] = intranasal administration; baseline mean 2.5 pmol/L
# women = settings: single-dose administration, sublingually
smiles,measurement,setting,value
"CC12CCC(=O)C=C1CCC1C2CCC2(C)C(O)CCC12 (centres unmarked) [testosterone, Testosterone]",maximum testosterone concentration (mean),[1],168.2 pmol/L
same,"subjective sexual desire, genital responsiveness, and genital arousal",women,increase
